Molecules are shown by their SMILES.

Broadly, the IC50 is the concentration that gives 50% inhibition.

The subject of experiment [1] is DU145. The experiment is described as follows: DU145 scattering inhibition (HGF dependent scattering). Conditions: Homo sapiens, DU-145; HGF dependent scattering, DU145 cells; read-out: DU145 SCATTERING INHIB IC50. Type of experiment: cell-based. An excerpt: (§1) HGF has well known activity in terms of inducing scattering and migration (wound healing) (Wells et al., Cell Motil Cytoskeleton. 2005 November 62(3):180-94; Miura et al., Urology 2001 December 58(6):1064-9; Nishimura et al., Int J Urol. 1998 May 5(3):276-81; Wang et al., Mol Cancer Ther. 2003 November; 2(11):1085-92; and Christensen et al., Cancer Res. 2003 Nov. 1; 63(21):7345-55).

Experiment [2] concerns the target T1, recombinant human c-Met/HGF receptor (Homo sapiens, UniProt P08581).
T1 construct: His tag (pBlueBacHis2A vector); made in house; host or cells: Hi-5 cells (Trichoplusia ni), baculovirus
The experiment is described as follows: In vitro receptor tyrosine kinase assay (DELFIA), c-Met/HGF receptor. Type of experiment: biochemical. As to conditions: read-out: CMET IC50. The method, then: Cell pellets were frozen at −80° C. until purification was performed.
The coated plates were washed and stored at 4° C. […] After incubation, the kinase reactions were quenched with EDTA and the plates were washed.

Experiment [3] concerns the target T2, VEGF receptor KDR (Homo sapiens, UniProt P35968).
T2 construct: made in house; host or cells: Sf9 cells (Spodoptera frugiperda), baculovirus
Description: In vitro receptor tyrosine kinase assay (DELFIA), VEGF receptor KDR. Type of experiment: biochemical. As to conditions: read-out: VEGFR IC50.

The subject of experiment [4] is A549. The experiment is described as follows: A549 wound healing inhibition (HGF dependent migration). As to conditions: Homo sapiens, A549 cells, read-out: A549 WOUND HEALING INHIB IC50. Type of experiment: cell-based.
Description: as §1

T2 sequence (P35968 806-1356): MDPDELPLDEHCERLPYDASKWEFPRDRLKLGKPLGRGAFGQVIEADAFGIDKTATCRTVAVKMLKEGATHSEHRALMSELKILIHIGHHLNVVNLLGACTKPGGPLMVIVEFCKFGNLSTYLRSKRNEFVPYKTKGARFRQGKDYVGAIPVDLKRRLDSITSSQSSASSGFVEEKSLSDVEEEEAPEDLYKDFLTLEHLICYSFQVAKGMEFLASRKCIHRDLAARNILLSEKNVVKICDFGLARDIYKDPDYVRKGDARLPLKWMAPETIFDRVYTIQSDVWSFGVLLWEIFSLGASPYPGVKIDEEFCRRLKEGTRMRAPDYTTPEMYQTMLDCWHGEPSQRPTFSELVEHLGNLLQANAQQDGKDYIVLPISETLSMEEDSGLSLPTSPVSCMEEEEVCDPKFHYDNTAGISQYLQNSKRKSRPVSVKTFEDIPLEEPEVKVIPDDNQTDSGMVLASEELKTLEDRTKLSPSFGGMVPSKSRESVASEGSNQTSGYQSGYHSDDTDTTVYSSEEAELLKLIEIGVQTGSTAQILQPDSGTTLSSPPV
T1 sequence (P08581 1078-1337): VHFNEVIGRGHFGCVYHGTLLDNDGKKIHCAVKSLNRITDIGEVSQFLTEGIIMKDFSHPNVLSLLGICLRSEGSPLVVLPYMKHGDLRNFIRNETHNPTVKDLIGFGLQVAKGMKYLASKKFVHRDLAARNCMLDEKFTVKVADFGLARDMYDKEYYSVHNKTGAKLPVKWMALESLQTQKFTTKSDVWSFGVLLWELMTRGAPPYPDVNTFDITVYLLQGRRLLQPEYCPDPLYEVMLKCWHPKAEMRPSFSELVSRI

For `CCN(C(=O)CC(=O)Nc1ccc(Oc2ccnc3cc(-c4cn(CC)cn4)sc23)c(F)c1)c1ccccc1`, the IC50 in experiment [1] is 1000 to 5000 nM; in experiment [2], 50 to 250 nM; in experiment [3] it was under 50 nM; in experiment [4], 1000 to 5000 nM.
Take `Cn1cnc(-c2cc3nccc(Oc4ccc(NC(=O)C5(C(=O)Nc6ccccc6F)CC5)cc4F)c3s2)c1`: the IC50 in experiment [1] was under 1000 nM; in experiment [2] it was under 50 nM; in experiment [3], under 50 nM; in experiment [4], 1000 to 5000 nM.
Regarding `Cn1ccnc1-c1cc2nccc(Oc3ccc(NC(=O)CS(=O)(=O)c4ccc(F)cc4)cc3F)c2s1`, the IC50 was 1000 to 5000 nM in experiment [1], 250 to 500 nM in experiment [2], 50 to 250 nM in experiment [3] and 1000 to 5000 nM in experiment [4].
As for `CCCn1cnc(-c2cc3nccc(Oc4ccc(NC(=O)CC(=O)Nc5ccccc5OC)cc4F)c3s2)c1`, the IC50 was under 1000 nM in experiment [1], under 50 nM in experiment [2], under 50 nM in experiment [3] and 1000 to 5000 nM in experiment [4].
In the case of `CN1CCN(Cc2ccc(-c3cc4nccc(Oc5ccc(NC(=O)C6(C(=O)Nc7ccccc7)CC6)cc5F)c4s3)cc2)CC1`, the IC50 in experiment [1] was under 1000 nM; in experiment [2], under 50 nM; in experiment [3], under 50 nM; in experiment [4], under 1000 nM.
In the case of `CCn1cnc(-c2cc3nccc(Oc4ccc(NC(=O)C5(C(=O)N(C)c6ccc(F)cc6)CC5)cc4F)c3s2)c1`, the IC50 was over 10000 nM in experiment [1], 250 to 500 nM in experiment [2], under 50 nM in experiment [3] and over 10000 nM in experiment [4].
Consider `CCn1cnc(-c2cc3nccc(Oc4ccc(NC(=O)CC(=O)N5CCOc6ccccc65)cc4F)c3s2)c1`, for which the concentration for half-maximal inhibition (IC50) in experiment [1] was under 1000 nM; in experiment [2], under 50 nM; in experiment [3], under 50 nM; in experiment [4], under 1000 nM.
`CN1CCN(Cc2ccc(-c3cc4nccc(Oc5ccc(NC(=O)CC(=O)N(C)c6ccccc6)cc5F)c4s3)cc2)CC1`: the IC50 in experiment [1] is under 1000 nM; in experiment [2] it was 50 to 250 nM; in experiment [3], under 50 nM; in experiment [4], 1000 to 5000 nM.
The corresponding values for `O=C1N(C(=S)Nc2ccc(Oc3ccnc4cc(-c5cn(CCN6CCCC6)cn5)sc34)c(F)c2)CCN1c1ccc(F)cc1` are under 1000 nM, under 50 nM, under 50 nM and under 1000 nM.
The matching figures for `CCn1cnc(-c2cc3nccc(Oc4ccc(NC(=O)C(=O)NCCc5ccccc5F)cc4F)c3s2)c1`: over 10000 nM, 50 to 250 nM, 50 to 250 nM and 1000 to 5000 nM.
For `O=C(Nc1ccc(Nc2ccnc3cc(-c4cn(CCN5CCCC5)cn4)sc23)c(F)c1)N1CCN(c2ccccc2)C1=O`, the half-inhibitory concentration (IC50) is over 10000 nM in experiment [1], under 50 nM in experiment [2], 250 to 500 nM in experiment [3] and over 10000 nM in experiment [4].
In the case of `CCn1cc(-c2cc3nccc(Oc4ccc(NC(=O)CC(=O)Nc5ccccc5OC)cc4F)c3s2)nc1CN(C)C`, the IC50 is under 1000 nM in experiment [1], under 50 nM in experiment [2], under 50 nM in experiment [3] and under 1000 nM in experiment [4].
As to `CN1CCN(Cc2ccc(-c3cc4nccc(Oc5ccc(NC(=O)CC(=O)Nc6ccccc6)cc5F)c4s3)nc2)CC1`, the IC50 in experiment [1] is under 1000 nM; in experiment [2], under 50 nM; in experiment [3], under 50 nM; in experiment [4], 1000 to 5000 nM.
With `Cn1cnc(-c2cc3nccc(Oc4ccc(NC(=O)N5CCN(N6CCCCC6)C5=O)cc4F)c3s2)c1`, the concentration for half-maximal inhibition (IC50) in experiment [1] is under 1000 nM; in experiment [2], under 50 nM; in experiment [3], 50 to 250 nM; in experiment [4], 1000 to 5000 nM.
The matching figures for `Cn1cnc(-c2cc3nccc(Oc4ccc(NC(CC(=O)Nc5ccc(F)cc5)C(F)(F)F)cc4F)c3s2)c1` (stereo not drawn): under 1000 nM, 50 to 250 nM, under 50 nM and under 1000 nM.
The matching figures for `Cn1ccnc1-c1cc2nccc(Oc3ccc(NC(=O)CC(=O)OC4CCNCC4)cc3F)c2s1`: over 10000 nM, over 500 nM, over 500 nM and over 10000 nM.
The matching figures for `COc1ccccc1NC(=O)CC(=O)Nc1ccc(Oc2ccnc3cc(-c4nccn4C)sc23)c(F)c1` [drawing 284]: 1000 to 5000 nM, under 50 nM, under 50 nM and under 1000 nM.
Consider `Cn1cnc(-c2cc3nccc(Oc4ccc(NC(CC(=O)Nc5ccc(F)cc5)C(F)(F)F)cc4)c3s2)c1` (stereo not drawn), for which the IC50 in experiment [1] was 1000 to 5000 nM; in experiment [2], 50 to 250 nM; in experiment [3], under 50 nM; in experiment [4] it was 1000 to 5000 nM.
Consider `CCn1ccnc1-c1cc2nccc(Oc3ccc(NC(=O)N4CCN(c5ccccc5)C4=O)cc3F)c2s1`, for which the IC50 in experiment [1] was under 1000 nM; in experiment [2], under 50 nM; in experiment [3], under 50 nM; in experiment [4], under 1000 nM.
`CC(C)n1cnc(-c2cc3nccc(Oc4ccc(NC(=O)C5CCN(c6ccccc6)C5=O)cc4F)c3s2)c1` (stereo not drawn): the half-maximal inhibitory concentration (IC50) was under 1000 nM in experiment [1], under 50 nM in experiment [2], under 50 nM in experiment [3] and under 1000 nM in experiment [4].
Consider `CN1CCN(Cc2ccc(-c3cc4nccc(Oc5ccc(NC(=O)C6CCN(c7ccccc7)C6=O)cc5F)c4s3)cc2)CC1` (stereo not drawn), for which the IC50 in experiment [1] was 1000 to 5000 nM; in experiment [2], 50 to 250 nM; in experiment [3] it was under 50 nM; in experiment [4], 1000 to 5000 nM.
`CC(C(=O)Nc1ccccc1)C(=O)Nc1ccc(Oc2ccnc3cc(-c4nccn4C)sc23)c(F)c1` (stereo not drawn) [drawing 286]: the IC50 in experiment [1] is 1000 to 5000 nM; in experiment [2], 50 to 250 nM; in experiment [3] it was under 50 nM; in experiment [4], 1000 to 5000 nM.
Consider `O=C(Nc1ccc(Oc2ccnc3cc(-c4cn(CCCN5CCCC5)cn4)sc23)c(F)c1)C1(C(=O)Nc2ccccc2F)CC1`, for which the IC50 is under 1000 nM in experiment [1], under 50 nM in experiment [2], under 50 nM in experiment [3] and under 1000 nM in experiment [4].
In the case of `CN1CCN(CCN(C)Cc2cccc(-c3cc4nccc(Oc5ccc(NC(=O)CC(=O)N(C)c6ccccc6)cc5F)c4s3)c2)CC1`, the IC50 in experiment [1] is under 1000 nM; in experiment [2] it was 50 to 250 nM; in experiment [3], under 50 nM; in experiment [4] it was under 1000 nM.
`CCn1cnc(-c2cc3nccc(Oc4ccc(NC(=O)CC(=O)Nc5cccc(F)c5)cc4F)c3s2)c1`: the IC50 in experiment [1] is 1000 to 5000 nM; in experiment [2], 50 to 250 nM; in experiment [3], under 50 nM; in experiment [4] it was under 1000 nM.
`CN(C)CCn1cnc(-c2cc3nccc(Oc4ccc(NC(=O)N5CCN(c6ccccc6)C5=O)cc4F)c3s2)c1`: the 50% inhibitory concentration (IC50) was under 1000 nM in experiment [1], under 50 nM in experiment [2], under 50 nM in experiment [3] and under 1000 nM in experiment [4].
In the case of `CN(C)CCn1cnc(-c2cc3nccc(Oc4ccc(NC(=O)CC(=O)N(C)c5ccccc5)cc4F)c3s2)c1`, the IC50 in experiment [1] is under 1000 nM; in experiment [2] it was under 50 nM; in experiment [3] it was under 50 nM; in experiment [4], under 1000 nM.
Turning to `CN(C(=O)CC(=O)Nc1ccc(Oc2ccnc3cc(-c4cn(C)cn4)sc23)c(F)c1)c1ccccc1`, the IC50 in experiment [1] was under 1000 nM; in experiment [2], 50 to 250 nM; in experiment [3] it was under 50 nM; in experiment [4] it was under 1000 nM.
Take `CN1CCN(C(=O)CC(=O)Nc2ccc(Oc3ccnc4cc(-c5cn(C)cn5)sc34)c(F)c2)c2ccccc21`: the half-maximal inhibitory concentration (IC50) in experiment [1] was 1000 to 5000 nM; in experiment [2], under 50 nM; in experiment [3], under 50 nM; in experiment [4] it was 1000 to 5000 nM.
On to `O=C(Nc1ccc(Oc2ccnc3cc(-c4cn(CCCN5CCCC5)cn4)sc23)c(F)c1)N1CCN(c2ccccc2F)C1=O`, for which the IC50 is over 10000 nM in experiment [1], 50 to 250 nM in experiment [2], under 50 nM in experiment [3] and 5000 to 10000 nM in experiment [4].
Regarding `Cn1cnc(-c2cc3nccc(Oc4ccc(NC(=O)C5(C(=O)Nc6ccccc6)CC5)cc4F)c3s2)c1`, the 50% inhibitory concentration (IC50) was under 1000 nM in experiment [1], under 50 nM in experiment [2], under 50 nM in experiment [3] and under 1000 nM in experiment [4].
For `CN1CC=C(c2cc3nccc(Oc4ccc(NC(=O)N5CCN(c6ccccc6)C5=O)cc4F)c3s2)CC1`, the half-maximal inhibitory concentration (IC50) is under 1000 nM in experiment [1], under 50 nM in experiment [2], 50 to 250 nM in experiment [3] and under 1000 nM in experiment [4].
Take `CC(C)n1cnc(-c2cc3nccc(Oc4ccc(NC(=O)CC(=O)Nc5ccccc5F)cc4F)c3s2)c1`: the IC50 was under 1000 nM in experiment [1], under 50 nM in experiment [2], under 50 nM in experiment [3] and 1000 to 5000 nM in experiment [4].
With `CC(C)n1cnc(-c2cc3nccc(Oc4ccc(NC(=O)CC(=O)Nc5nccs5)cc4F)c3s2)c1`, the IC50 was 1000 to 5000 nM in experiment [1], under 50 nM in experiment [2], under 50 nM in experiment [3] and 1000 to 5000 nM in experiment [4].
Regarding `CCn1cnc(-c2cc3nccc(Oc4ccc(NC(=O)C5(C(=O)Nc6ccccc6F)CC5)cc4F)c3s2)c1`, the IC50 was under 1000 nM in experiment [1], under 50 nM in experiment [2], under 50 nM in experiment [3] and under 1000 nM in experiment [4].
Take `O=C(CC(=O)Nc1ccc(Oc2ccnc3cc(-c4ccc(CN5CCNCC5)cc4)sc23)c(F)c1)Nc1ccccc1`: the IC50 in experiment [1] was under 1000 nM; in experiment [2] it was under 50 nM; in experiment [3], under 50 nM; in experiment [4], 1000 to 5000 nM.

(Values after US8329726B2, “Inhibitors of VEGF receptor and HGF receptor signaling” (MethylGene Inc., priority 2005, dated 2012).)
